This is an account of results in PubChem BioAssay (NCI).

Experiment in all cases: DTP human tumour cell line panel, 48 h
Experiment [1] deals with SK-MEL-5 melanoma.
In experiment [2] the test system is MDA-MB-435.
The subject of experiment [3] is UACC-257 melanoma.
The test system of experiment [4] is RXF 393 renal.
In experiment [5] the test system is BT-549 breast.
Experiment [6] deals with LOX IMVI melanoma.
The test system of experiment [7] is NCI-H460 lung.
Experiment [8] concerns M14 melanoma.
The test system of experiment [9] is HOP-92 NSCLC.
For experiment [10], the system named is HCT-15 colon.

Where “and” joins values, the source holds several entries; their conditions need not be identical. Equal entries are not always repeated.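 Tested at 5 concentrations; 48 h exposure; 96-well plates; endpoints linearly interpolated, else capped at highest concentration. GI50 = concentration required for 50% inhibition of growth. At the TGI there is no net growth.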

As a reminder, the GI50 is the concentration giving 50% growth inhibition. What is called TGI is the concentration at which net growth stops. Take `CN(CO)c1nc(N(C)CO)nc(N(C)CO)n1`: the GI50 in [1] is 18.1 µM; in [3], 20.6 µM and 21.8 µM; in [4] it was 18 µM; in [6], 16.2 µM; in experiment [7], 17.2 µM and 13.9 µM; in [8], 19.5 µM. The GI50 is 29.9 µM and 27.3 µM in [9]; 25.8 µM in experiment [10]. Further, the TGI was 32.2 µM and 33.8 µM in [1]; 40.3 µM in [2]; 40.7 µM and 44.4 µM in experiment [3]; 34.1 µM and 22.9 µM in experiment [4]; 43.1 µM and 36.9 µM in experiment [5]; 36.6 µM and 26.8 µM in experiment [6]. The TGI in experiment [7] was 43.6 µM and 42.8 µM; in experiment [8], 36.4 µM and 42.8 µM; in [9] it was 64.9 µM and 64.1 µM; in experiment [10] it was 65.5 µM and 37.1 µM.

`N#Cc1ccc(O)c(C2=NCC(c3ccc(-c4ccccc4)cc3)O2)c1` (stereo not drawn): the GI50 in experiment [1] was 0.532 µM; in experiment [2], 0.665 µM; in experiment [3], 1.15 µM; in experiment [4] it was 0.487 µM; in experiment [5], 1.37 µM; in experiment [6], 0.0579 µM. The 50% growth inhibitory concentration (GI50) in experiment [7] is 0.279 µM; in experiment [8], 0.399 µM; in experiment [9], 0.421 µM; in experiment [10], 0.0896 µM. Besides, the TGI is 2.28 µM in [1]; 51.6 µM in experiment [2]; 7.96 µM in experiment [3]; 5.55 µM in [4]; 16.1 µM in [5]; 10.8 µM in experiment [6]. The TGI was found to be 8.75 µM in experiment [7], 2.95 µM in [8], 22.5 µM in experiment [9] and 20.4 µM in experiment [10].

With `COc1ccccc1-c1ccc2c(N)c(C(=O)c3ccc4c(c3)OCO4)sc2n1`, the GI50 is 4.52 µM in experiment [1]; 2.27 µM in experiment [2]; 6.1 µM in experiment [3]; 3.01 µM in experiment [4]; 7.21 µM in experiment [5]; 4.61 µM in experiment [6]. Further, the GI50 in [7] is 4.04 µM; in experiment [8], 4.21 µM; in [9], 2.99 µM; in [10], 4.08 µM. Also, the TGI in experiment [1] was found to be 24.2 µM; in experiment [2], 9.54 µM; in experiment [3], 22.7 µM; in experiment [4], 11.2 µM; in experiment [5], 30.2 µM; in experiment [6], 21.6 µM. In addition, the TGI stood at 16.7 µM in experiment [7], 75 µM in experiment [8], 13 µM in experiment [9] and 53.6 µM in experiment [10].
